Test results published in patent US9963514B2, “BAG3 receptor binding molecules for use as a medicament” (BIOUNIVERSA S.R.L., priority 2013, dated 2018).

Assays:
[1] = tested on: J774 A1 cells; experiment: Binding of FITC-BAG3 to J774 macrophages by flow cytometry, with competition by BAG3-specific peptides or anti-BAG3 F(ab')2; design: species or system murine
Procedure: J774 A1 cells (1×10^6 cells/ml) were incubated with different concentrations of BAG3 FITC protein ([…]). FITC-BSA (70 nM) was used as a negative control (grey). Fluorescence was analyzed by flow cytometry. (FIG. 10).
In particular, J774 cells were incubated with 14 nM FITC-BAG3 protein and with 625 nM BAG3-specific peptides (peptide 1, peptide 2, peptide 3, peptide 4, or a scrambled peptide) or with 420 nM of anti-BAG3 F(ab′) antibodies (mouse monoclonal antibodies AC1, AC2 and the polyclonal antibody produced in rabbit TOS2). Fragments F(ab′) 2 of rabbit or mouse IgG were used as a negative control.

[2] = tested on: J774 A1 cells; experiment: Confocal fluorescence microscopy of rBAG3-FITC binding to J774 cells; design: species or system murine; conditions: 1 h
Procedure: The binding of the BAG3 protein to the cell surface of the J774 cells was then confirmed through conjugation of the recombinant protein with a fluorophore (FIG. 8). The BAG3 recombinant protein was then conjugated to FITC using the FluoroTag Conjugation FITC kit (SIGMA). Equal amounts of BSA-FITC (negative control) and rBAG3-FITC were added to the culture medium for 1 h. The cells were then fixed with a 3.7% formaldehyde solution and analyzed with a Zeiss LSM confocal microscope.
(§1) Confocal fluorescence microscopy analysis was performed to measure the binding of rBAG3-FITC to HCM, J774 A1, and PANC-1 cells. The BAG3 recombinant protein and the BSA (bovine serum albumin) (SIGMA) were conjugated to FITC using the FluoroTag Conjugation FITC kit (SIGMA) following the manufacturer's instructions. Equal amounts of rBAG3-FITC and BSA-FITC were added to the three cell lines in the presence of 0.1% NaN3 for 1 h. β-integrin protein was used as a positive control. Fluorescence was analyzed using a Zeiss LSM confocal microscope.

[3] = tested on: heart muscle cells (HCM); experiment: Confocal fluorescence microscopy of rBAG3-FITC binding to HCM cells; conditions: 0.1% NaN3, 1 h
Procedure: as §1, with “(FIG. 9). Confocal” for “Confocal”

[4] = tested on: pancreatic adenocarcinoma cells (PANC-1); experiment: Confocal fluorescence microscopy of rBAG3-FITC binding to PANC-1 cells; conditions: 0.1% NaN3, 1 h
Procedure: as §1, with “(FIG. 9). Confocal” for “Confocal”

[5] = tested on: J774 murine monocyte cell line; experiment: Macrophage activation: nitrite production with Griess reagent (Example 8); type: cell-based; conditions: 24 h
Procedure: J774 cells were plated at a 60% confluence and incubated for 24 h with the BAG3 recombinant protein at concentrations of 10, 30, or 100 ng/ml. The nitrites production was verified in the culture medium using Griess reagent (1% sulphanilamide, 0.1% naphthyl ethylenediamine, 5% phosphoric acid) and measured using a Beckman DU-62 spectrophotometer at […].
The BAG3 recombinant protein was then used in macrophage activation assays in order to determine a possible role of the protein released in the serum in relation to the blood cells. To this end, the J774 murine monocyte cell line was treated with the BAG3 recombinant protein at different concentrations, using a pro-inflammatory agent, such as lipopolysaccharide (LPS), as a positive control. The activation of monocytes was measured by assay of nitrites. (FIG. 7).

[6] = tested on: inducible nitric oxide synthase (iNOS); experiment: Effect of rBAG3 on iNOS expression in J774 cells (Western blot); type: cell-based, murine; conditions: 20 hours
Procedure: (§2) In order to explore the functional consequences of the binding of BAG3 to macrophages, we tested the effect of rBAG3 expression on inducible nitric oxide synthase (iNOS) and cyclo-oxygenase-2 (COX-2) in the cells. J774 cells at 80% confluence were incubated with a control medium, BSA, LPS or rBAG3 for 20 hours. Polymyxin was added to verify the presence of non-specific effects of endotoxins still present after the purification of the BAG3 recombinant protein. COX-2 and iNOS were analyzed in cell lysates by Western blotting.

[7] = tested on: cyclo-oxygenase-2 (COX-2); experiment: Effect of rBAG3 on COX-2 expression in J774 cells (Western blot); type: cell-based, murine; conditions: 20 hours
Procedure: as §2

[8] = tested on: J774 A1 macrophages; experiment: Nitrite release by J774 A1 macrophages incubated with rBAG3 (Example 12); type: cell-based, murine; conditions: J774 A1 cells, 24 hours
Procedure: J774 A1 cells at 80% confluence were incubated with a control medium, BSA, LPS, or rBAG3 for 24 hours. […] supernatant from each sample was incubated with […] Griess reagent; the optical density at 550 nm (OD550) was measured with a Beckman DU62 spectrophotometer. The nitrite concentration was assessed by comparing the sample's OD at 550 nm with that of a standard sodium nitrite curve (FIG. 12).

[9] = tested on: J774 A1 macrophages; experiment: IL-6 release by J774 A1 macrophages incubated with rBAG3 (ELISA, Example 13); type: cell-based, murine; conditions: J774A.1 cells, 5 hours
Procedure: J774A.1 cells at 80% confluence were incubated with a control medium, BSA, LPS, or BAG3 for 5 hours. IL-6 was measured in the cell culture medium using an ELISA test. IL-6 concentration was assessed by comparing the sample's ODs with that of a standard IL-6 recombinant curve (FIG. 13).

FITC-BSA: bovine serum albumin conjugated to FITC, negative control [reference compound]
FITC-BSA positive cell % (±D.S.) ([1]; J774 cells, FITC-BSA negative control, flow cytometry): 4.04 (±0.06) %

FITC-rBAG3: BAG3 recombinant protein conjugated to FITC using the FluoroTag Conjugation FITC kit
FITC-rBAG3 positive cell % (±D.S.) ([1]; J774 cells, FITC-rBAG3 alone, flow cytometry): 15.7 (±0.45) % | (FITC-rBAG3)-(FITC-BSA) positive cell % (±D.S.) ([1]; J774 cells, FITC-rBAG3 minus FITC-BSA): 11.06 (±0.45) % | binding of FITC-BAG3 to macrophages of the J774 cell line ([1]; flow cytometry, 7, 14 and 70 nm FITC-BAG3): binds the macrophages of the J774 cell line | binding to the cell surface of J774 macrophages ([2]; listed as BAG3 recombinant protein bound to fluorescein isothiocyanate (FITC)): binds the surface of macrophages | binding to the cell surface of J774 macrophages ([2]; listed as rBAG3-FITC): confirmed | binding to heart muscle cells (HCM) [3]: not | binding to pancreatic adenocarcinoma cells (PANC-1) [4]: not

rBAG3: BAG3 recombinant protein with a His tag
increase of nitrite production compared to the control ([5]; J774 cells, 100 ng/ml, p<0.001): 200% | nitrite production, dependence on dose ([5]; J774 cells, 10, 30 or 100 ng/ml): dose-dependent | iNOS enzyme levels [6]: increased | COX-2 enzyme levels [7]: increased | release of nitrite [8]: induces the release of nitrite | release of interleukin-6 (IL-6) [9]: induces the release of interleukin-6 (IL-6)
